Measured values reported in patent publication US8569489B2 (A.B. Intelpharm Limited, priority 2007, dated 2013).
Read-outs that look alike come from different tables or passages of the source.

Tests used:
[1] = system: isolated guinea pig ileum (spasmogenic effect of histamine); experiment: Isolated guinea pig ileum, suppression of the spasmogenic effect of histamine; format: cell-based; settings: histamine spasm, read-out: Antihistaminic activity, isolated ileum of guinea pig, IC50
Source text: Study of the antihistaminic activity of the compounds on which a claim is made was done using known methodologies (Rukovodstvo po eksperimental'nomu izucheniyu novykh farmakologicheskikh veshchestv [Manual on experimental study of new pharmacological substances], Moscow, 2005, p. 489) on isolated guinea pig ileum (suppression of the spasmogenic effect of histamine) and on anesthetized guinea pigs (antagonism in relation to the bronchoconstrictor effect of histamine). In tests on intact animals, substances were administered intravenously (5 minutes before the administration of histamine) and orally (2 hours before the beginning of the study).

[2] = system: H1-histamine receptors (bronchoconstrictor effect of histamine); experiment: Anesthetized guinea pigs, antagonism of the bronchoconstrictor effect of histamine (histamine bronchospasm model); format: in vivo, guinea pig; settings: for Duration of effective blockade of H1-histamine receptors: histamine bronchospasm model, oral dose of 3 mg/kg; for ED50: Cavia porcellus
Protocol: In tests on intact animals, substances were administered intravenously (5 minutes before the administration of histamine) and orally (2 hours before the beginning of the study).

[3] = system: histamine-induced itch; experiment: Itching induced by instillation of histamine solution into the eye of conscious guinea pigs; format: in vivo, guinea pig; settings: 3 mg/kg administered orally
Source text: (Rukovodstvo po […] [Manual on experimental study of new pharmacological substances], Moscow, 2005, p. 511)

[4] = system: passive cutaneous anaphylaxis; experiment: Passive cutaneous anaphylaxis model in rats; format: in vivo, rat; settings: dose 1 mg/kg
Source text: (Rukovodstvo po eksperimental'nomu izucheniyu novykh farmakologicheskikh veshchestv [Manual on experimental study of new pharmacological substances], Moscow, 2005, p. 511)

[5] = system: mice; experiment: Acute toxicity, mice perorally
[6] = system: mice; settings: mice perorally; literature value (footnotes * and **); cited from earlier work
[7] = pH of aqueous solution of salts; format: physicochemical
[8] = Thermal stability

| SMILES | IC50 [1] [nM] | Antihistaminic activity, guinea pigs in vivo, intravenous administration, ED50 ([2]; anesthetized guinea pigs, intravenous, 5 minutes before histamine) [mg/kg] | Antihistaminic activity, guinea pigs in vivo, peroral administration, ED50 ([2]; anesthetized guinea pigs, orally 2 hours before the study) [mg/kg] | Duration of effective blockade of H1-histamine receptors [2] [h] | Duration of the protective effect in the histamine-induced itch model [3] | Antiallergic effect, passive cutaneous anaphylactic model [4] | Acute toxicity, LD50 [5] [mg/kg] | ED50 ([2]; po, anesthetized guinea pigs, orally 2 hours before the study, read-out: Antihistaminic activity, guinea pigs in vivo, peroral administration, ED50) [mg/kg] | ED50 ([2]; anesthetized guinea pigs, intravenous, 5 minutes before histamine, read-out: Antihistaminic activity, guinea pigs in vivo, intravenous administration, ED50) [mg/kg] | Acute toxicity, LD50 [6] | pH of aqueous solution [7] | Thermal stability [8] |
| --- | --- | --- | --- | --- | --- | --- | --- | --- | --- | --- | --- | --- |
| Cn1c(=O)[nH]c(=O)c2c1ncn2CCCCN1CCN(C(c2ccccc2)c2ccccc2)CC1 [II-g, 3-methyl-7-[4-(benzhydryl-4-piperazinyl-1)butyl]xanthine] | 18 | 0.02 | 0.02 | 72 | remains at a stable level for 2 days and decreases only after 72 hours | moderate and similar antiallergic effect | 1300.0 | – | – | – | – | – |
| CN1CCCC(n2nc(Cc3ccc(Cl)cc3)c3ccccc3c2=O)CC1 (centres unmarked) [Azelastine, reference compound] | – | – | – | 48 | diminishes significantly after 48 hours and disappears altogether after 72 hours | – | – | 0.015 | 0.05 | 124-139** mg/kg | – | – |
| Cn1c(=O)[nH]c(=O)c2c1ncn2CCCCN1CCN(C(c2ccccc2)c2ccccc2)CC1.O=C(O)CCC(=O)O [Succinate, 7-/4-(4-benzhydrylpiperazinyl-1)butyl/-3-methylxanthine succinate] | – | – | – | – | – | – | – | – | – | – | 4.85 | good thermal stability |
